The values that follow come from patent US20250262170A1, “COMBINATIONS OF BETA 2-ADRENERGIC RECEPTOR AGONISTS AND BETA 3-ADRENERGIC RECEPTOR AGONISTS, AND MEDICAL USES THEREOF” (ATROGI AB, priority 2022, published 2025).

In the test the target is T1, human β3-adrenergic receptor (Homo sapiens, UniProt P13945).
T1 construct: expressed in transfected cells
The test is described as follows: cAMP levels in CHO-K1 cells expressing the human β3-adrenergic receptor. As to conditions: 15 min; for Emax at 10 µM: CHO-K1, 0.25 h, read-out: Activity (intracellular cAMP compared to that of isoproterenol). The class given is cell-based. Here is the method: CHO-K1 cells stably expressing the human β3-adrenergic receptors were serum-starved overnight and stimulated with an agonist, final concentration 1×10^−5 M, for 15 min in stimulation buffer (HBSS supplemented with 1% BSA, 5 mM HEPES and 1 mM IBMX, pH 7.4) The medium was then aspirated and to end the reaction, 100 μL of 95% EtOH was added to each well of the 24-well plate and cells were kept at −20° C. overnight. The next day EtOH was allowed to evaporate and 250 μL of lysis buffer (1% BSA, 5 mM HEPES and 0.3% Tween-20, pH 7.4) was added to each well. The plate was kept at −80° C. for 30 min and thawed in room temperature. Intracellular cAMP levels were detected using an alpha screen cAMP kit (6760635D from Perkin Elmer). The activity for each compound is compared to that of isoproterenol.
(In general: Cyclic AMP is a second messenger, typically raised through Gs and lowered through Gi signalling.)

T1 sequence (P13945 whole entry): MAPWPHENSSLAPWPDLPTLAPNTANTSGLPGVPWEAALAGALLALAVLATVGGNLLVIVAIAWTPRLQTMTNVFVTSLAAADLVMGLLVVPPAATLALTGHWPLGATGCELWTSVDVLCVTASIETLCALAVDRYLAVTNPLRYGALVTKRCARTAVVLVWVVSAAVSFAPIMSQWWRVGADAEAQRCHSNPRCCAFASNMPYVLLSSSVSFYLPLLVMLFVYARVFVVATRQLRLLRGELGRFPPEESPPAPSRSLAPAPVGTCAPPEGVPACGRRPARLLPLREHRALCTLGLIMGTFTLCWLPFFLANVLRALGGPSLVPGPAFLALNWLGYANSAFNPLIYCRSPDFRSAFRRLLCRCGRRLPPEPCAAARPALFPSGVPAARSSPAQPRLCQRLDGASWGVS

For the molecule `CC(C)CS(=O)(=O)N[C@H]1CC[C@@H](CC(C)(C)NC[C@H](O)c2cccc(F)c2)CC1` [Compound 16, N-((cis)-4-(2-(((R)-2-(3-fluorophenyl)-2-hydroxy-ethyl)amino)-2-methyl-propyl)cyclohexyl)-2-methyl-propane-1-sulfonamide], the Emax at 10 µM is > 75%. For the molecule `CCS(=O)(=O)N[C@H]1CC[C@H](CC(C)(C)NC[C@H](O)c2cccc(F)c2)CC1` [Compound 17, N-((trans)-4-(2-(((R)-2-(3-fluorophenyl)-2-ethyl)amino)-2-methylpropyl)cyclohexyl)-ethanesulfonamide], the Emax at 10 µM is > 75%. Turning to `CCS(=O)(=O)N[C@H]1CC[C@@H](CC(C)(C)NC[C@H](O)c2cncc(F)c2)CC1` [Compound 18, N-((cis)-4-(2-(((R)-2-(5-fluoropyridin-3-yl)-2-hydroxyethyl)amino)-2-methylpropyl)cyclo-hexyl)ethanesulfonamide], the “Activity (intracellular cAMP compared to that of isoproterenol)” value (10 μM) was “+ +”. On to `CCCCS(=O)(=O)N[C@H]1CC[C@H](CC(C)(C)NC[C@H](O)c2cncc(F)c2)CC1` [Compound 19, N-((trans)-4-(2-(((R)-2-(5-fluoropyridin-3-yl)-2-hydroxyethyl)amino)-2-methylpropyl)cyclohexyl)-butane-1-sulfonamide], for which the Emax at 10 µM was > 75%.

For the molecule `CC(C)CS(=O)(=O)N[C@H]1CC[C@H](CC(C)(C)NC[C@H](O)c2cncc(F)c2)CC1` [Compound 20, N-((trans)-4-(2-(((R)-2-(5-fluoropyridin-3-yl)-2-hydroxyethyl)amino)-2-methylpropyl)cyclohexyl)-2-methylpropane-1-sulfonamide], the Emax at 10 µM was > 75%. Consider `CCS(=O)(=O)N[C@H]1CC[C@H](CC(C)(C)NC[C@H](O)c2cncc(F)c2)CC1` [Compound 21, N-((trans)-4-(2-(((R)-2-(5-fluoropyridin-3-yl)-2-hydroxyethyl)amino)-2-methylpropyl)cyclohexyl)-ethanesulfonamide], for which the Emax at 10 µM is > 75%. Take `CC(C)(C[C@H]1CC[C@H](S(N)(=O)=O)CC1)NC[C@H](O)c1cccc(F)c1` [Compound 22, (trans)-4-(2-(((R)-2-(3-fluorophenyl)-2-hydroxy-ethyl)amino)-2-methyl-propyl)cyclohexane-1-sulfonamide]: the Emax at 10 µM was > 75%.

Take `CC(C)(C[C@H]1CC[C@H](NS(C)(=O)=O)CC1)NC[C@H](O)c1ccc(F)c(N)c1F` [Compound 23, N-((trans)-4-(2-(((R)-2-(3-amino-2,4-difluorophenyl)-2-hydroxyethyl)amino)-2-methylpropyl)cyclohexyl)-methanesulfonamide]: the Emax at 10 µM was > 75%.

With `CS(=O)(=O)N[C@H]1CC[C@H](C[C@@H]2CC[C@H]([C@H](O)c3cccc(F)c3)N2)CC1` [Compound 24, N-((trans)-4-(((2S,5R)-5-((R)-(3-fluorophenyl)-(hydroxy)methyl)pyrrolidin-2-yl)methyl)cyclohexyl)-methanesulfonamide], the Emax at 10 µM is > 75%.

For `CC(C)(C[C@H]1CC[C@H](NS(=O)(=O)C2CC2)CC1)NC[C@H](O)c1cccc(F)c1` [Compound 25, N-((trans)-4-(2-(((R)-2-(3-fluorophenyl)-2-hydroxy-ethyl)amino)-2-methyl-propyl)cyclohexyl)cyclo-propanesulfonamide], the Emax at 10 µM is > 75%.

Take `CNS(=O)(=O)[C@H]1CC[C@H](CC(C)(C)NC[C@H](O)c2cccc(F)c2)CC1` [Compound 27, (trans)-4-(2-(((R)-2-(3-fluorophenyl)-2-hydroxy-ethyl)amino)-2-methy-propyl)-N-methyl-cyclohexane-1-sulfonamide]: the Emax at 10 µM is > 75%. With `COCC12CC(C1)[C@H]([C@H](O)c1cccc(F)c1)N2` [Compound 29, (R)-(3-fluorophenyl)((R)-1-(methoxymethyl)-2-aza-bicyclo[2.1.1]hexan-3-yl)-methanol], the Emax at 10 µM is 50 to 75%. `CC(C)(C[C@H]1CC[C@H](NS(=O)(=O)C(F)(F)F)CC1)NC[C@H](O)c1cccc(F)c1` [Compound 30, 1,1,1-trifluoro-N-((trans)-4-(2-(((R)-2-(3-fluorophenyl)-2-hydroxyethyl)amino)-2-methylpropyl)cyclohexyl)-methanesulfonamide]: the Emax at 10 µM is > 75%. Same read-out and setting: the result for `CCCS(=O)(=O)N[C@H]1CC[C@H](CC(C)(C)NC[C@H](O)c2cccc(F)c2)CC1` [Compound 31, N-((trans)-4-(2-(((R)-2-(3-fluorophenyl)-2-hydroxy-ethyl)amino)-2-methyl-propyl)cyclohexyl)propane-1-sulfonamide] reads > 75%; that for `O[C@H](c1cncc(F)c1)C12CCC(COc3ccc(OC(F)(F)F)cc3)(CC1)N2` [Compound 32, (R)-(5-fluoropyridin-3-yl)((1r,4R)-4-((4-(trifluoro-methoxy)phenoxy)methyl)-7-azabicyclo[2.2.1]heptan-1-yl)methanol], > 75%.

`CC(C)(C[C@H]1CC[C@H](NC(=O)C(F)(F)F)CC1)NC[C@H](O)c1cccc(F)c1` [Compound 33, 2,2,2-trifluoro-N-((1R,4r)-4-(2-(((R)-2-(3-fluorophenyl)-2-hydroxyethyl)amino)-2-methylpropyl)cyclohexyl)-acetamide]: the Emax at 10 µM was > 75%.

Take `CC(C)(C[C@H]1CC[C@H](NS(C)(=O)=O)CC1)NC[C@H](O)c1cccc(C#N)n1` [Compound 35, N-((trans)-4-(2-(((S)-2-(6-cyanopyridin-2-yl)-2-hydroxyethyl)amino)-2-methylpropyl)cyclohexyl)-methanesulfonamide]: the Emax at 10 µM is > 75%. Turning to `CO[C@H]1CC[C@@H](CC(C)(C)NC[C@H](O)c2ccc(F)c(N)c2F)CC1` [Compound 36, (R)-1-(3-amino-2,4-difluoro-phenyl)-2-((1-((cis)-4-methoxycyclohexyl)-2-methylpropan-2-yl)amino)-ethan-1-ol], the Emax at 10 µM is > 75%. For `CO[C@H]1CC[C@H](CC(C)(C)NC[C@H](O)c2ccc(F)c(N)c2F)CC1` [Compound 37, (R)-1-(3-amino-2,4-difluoro-phenyl)-2-((1-((trans)-4-methoxycyclohexyl)-2-methylpropan-2-yl)amino)-ethan-1-ol], the Emax at 10 µM was > 75%.

Turning to `CCOCC12CCC([C@H](O)c3cncc(F)c3)(CC1)N2` [Compound 38, (R)-(4-(ethoxymethyl)-7-azabicyclo[2.2.1]heptan-1-yl)(5-fluoropyridin-3-yl) methanol], the Emax at 10 µM lay in the range of 50 to 75%. With `CO[C@H]1CC[C@H](CC[C@@H]2CC[C@H]([C@H](O)c3cccc(F)c3)N2)CC1` [Compound 39, (R)-(3-fluorophenyl)((2R,5R)-5-(2-((tranbs)-4-methoxy-cyclohexyl)ethyl)pyrrolidin-2-yl)methanol], the Emax at 10 µM is > 75%. As to `CC(C)(C[C@H]1CC[C@H](C#N)CC1)NC[C@H](O)c1cccc(F)c1` [Compound 40, (trans)-4-(2-(((R)-2-(3-fluorophenyl)-2-hydroxy-ethyl)amino)-2-methyl-propyl)cyclohexane-1-carbonitrile], the Emax at 10 µM was 50 to 75%. `CCOC(=O)CO[C@H]1CC[C@H](C(C)(C)NC[C@H](O)c2cccc(F)c2)CC1` [Compound 41, ethyl 2-(((1R,4r)-4-(2-(((R)-2-(3-fluorophenyl)-2-hydroxyethyl)amino)propan-2-yl)cyclohexyl)oxy)acetate]: the Emax at 10 µM is > 75%.
